Results on 18 molecules are retold here after patent publication EP0813867B1, “Retroviral protease inhibitors” (priority 1990, dated 1992).

Structures are written as SMILES. Read-outs that look alike come from different tables or passages of the source.

The test system of one data set is CEM cells. In words: Intrinsic toxicity of the test compound in CEM cells without virus (MTT). Type of data set: cell-based. The following applies: Table 14, medium without virus, 7 days. The source says: Methods 20, 309-321 (1988).
The test system of a further data set is HIV-1. In words: HIV inhibition assay of acutely infected CEM cells (tetrazolium based colorimetric, MTT). The following applies: Human immunodeficiency virus 1, CCRF-CEM, 168 h.
The target in another data set is T1, HIV protease (Human immunodeficiency virus type 1 group M subtype B, UniProt P04585).
T1 construct: HIV protease is diluted in the assay buffer to a final enzyme concentration of 12.3 nanomolar, based on a molecular weight of 10,780
In words: biochemical. Type of data set: biochemical. As for the experimental part: The enzyme method is described below. The substrate is 2-aminobenzoyl-Ile-Nle-Phe(p-NO2)-Gln-ArgNH2. The positive control is MVT-101 (Miller, M. et al, Science, 246, 1149 (1989)] The assay conditions are as follows:
The above described substrate is dissolved in DMSO, then diluted 10 fold in assay buffer. Final substrate concentration in the assay is 80 µM.
HIV protease is diluted in the assay buffer to a final enzyme concentration of 12.3 nanomolar, based on a molecular weight of 10,780.
The final concentration of DMSO is 14% and the final concentration of glycerol is 18%. The test compound is dissolved in DMSO and diluted in DMSO to 10x the test concentration; 10µl of the enzyme preparation is added, the materials mixed and then the mixture is incubated at ambient temperature for 15 minutes. The enzyme reaction is initiated by the addition of 40µl of substrate. The increase in fluorescence is monitored at 4 time points (0, 8, 16 and 24 minutes) at ambient temperature. Each assay is carried out in duplicate wells.

Setting [1] is: IC50, Table 13, 12.3 nanomolar enzyme, 80 µM substrate, pH 6.4, ambient temperature.
[2] abbreviates: IC50, Table 14, above-described enzyme assay.
Setting [3] is: Table 13, 12.3 nanomolar enzyme, 80 µM substrate, pH 6.4, ambient temperature, read-out: IC50.

Protocol for HIV-1: The HIV inhibition assay method of acutely infected cells is an automated tetrazolium based colorimetric assay essentially that reported by Pauwles et al, J. Virol. […] Assays were performed in 96-well tissue culture plates. CEM cells, a CD4^+ cell line, were grown in RPMI-1640 medium (Gibco) supplemented with a 10% fetal calf serum and were then treated with polybrene (2µg/ml). An 80 µl volume of medium containing 1 x 10^4 cells was dispensed into each well of the tissue culture plate. To each well was added a 100µl volume of test compound dissolved in tissue culture medium (or medium without test compound as a control) to achieve the desired final concentration and the cells were incubated at 37°C for 1 hour. A frozen culture of HIV-1 was diluted in culture medium to a concentration of 5 x 10^4 TCID50 per ml (TCID50 = the dose of virus that infects 50% of cells in tissue culture), and a 20µL volume of the virus sample (containing 1000 TCID50 of virus) was added to wells containing test compound and to wells containing only medium (infected control cells). Several wells received culture medium without virus (uninfected control cells). Likewise, the intrinsic toxicity of the test compound was determined by adding medium without virus to several wells containing test compound.
In experiments 2 and 4 the final concentrations of test compounds were 1, 10, 100 and 500 µg/ml. Either azidothymidine (AZT) or dideoxyinosine (ddI) was included as a positive drug control. […] DMSO was added to all control wells at an appropriate concentration.
Following the addition of virus, cells were incubated at 37°C in a humidified, 5% CO2 atmosphere for 7 days. Test compounds could be added on days 0, 2 and 5 if desired. On day 7, post-infection, the cells in each well were resuspended and a 100µl sample of each cell suspension was removed for assay. A 20µL volume of a 5 mg/ml solution of 3-(4,5-dimethylthiazol-2-yl)-2,5-diphenyltetrazolium bromide (MTT) was added to each 100µL cell suspension, and the cells were incubated for 4 hours at 27°C in a 5% CO2 environment. […] To each sample was added 100µl of 10% sodium dodecylsulfate in 0.01 N HCl to lyse the cells, and samples were incubated overnight. The absorbance at 590 nm was determined for each sample using a Molecular Devices microplate reader. Absorbance values for each set of wells is compared to assess viral control infection, uninfected control cell response as well as test compound by cytotoxicity and antiviral efficacy.

With `CCCCNC(=O)N(CC(C)C)C[C@@H](O)[C@H](Cc1ccccc1)NC(=O)[C@H](CC(N)=O)NC(=O)OCc1ccccc1`, the TD50 in the data set on CEM cells is 170 to 180 µM. The same molecule yielded an EC50 in the data set on HIV-1 of 17000 nM.

For `CC(C)CCN(C[C@@H](O)[C@H](Cc1ccccc1)NC(=O)[C@H](CC(N)=O)NC(=O)OCc1ccccc1)C(=O)NC(C)(C)C` (relative stereo) [Compound 5a, Butanediamide, N^1-[3-[[[(1,1-dimethylethyl)amino]carbonyl](3,3-dimethylpropyl)amino]-2-hydroxy-1-(phenylmethyl)propyl]-2-[(N-benzyloxycarbonyl)amio], [1S-[1R*(R*),2S*]]-], the midpoint of inhibition on HIV protease (Table 13, 12.3 nanomolar enzyme, 80 µM substrate, pH 6.4, ambient temperature), the IC50, lay at 18 nM.

For the molecule `CC(C)CN(CC(O)C(Cc1ccccc1)NC(=O)C(CC(N)=O)NC(=O)c1ccc2ccccc2n1)C(=O)NC(C)(C)C` (stereo not drawn) [Compound 1b, Butanediamide, N^1-[3-[[[(1,1-dimethylethyl)amino]carbonyl](2-methylpropyl)amino]-2-hydroxy-1-(phenylmethyl)propyl]-2-[(2-quinolinylcarbonyl)amino]-, [1S-[1R*(R*),2S*]]-], the 50% inhibitory concentration (IC50) at HIV protease (setting [1]) came out at 7.1 nM; against HIV protease (setting [2]) it was 7 nM. Also, the TD50 with CEM cells stood at 16 µM. Also, in the data set with HIV-1, it took 10 nM to reach a half-maximal effect (EC50).

In the case of `CC(C)CCN(C[C@@H](O)[C@H](Cc1ccccc1)NC(=O)[C@H](CC(N)=O)NC(=O)OCc1ccccc1)C(=O)NC(C)(C)C` [Compound 2a, Butanediamide, N^1-[3-[[[(1,1-dimethylethyl)amino]carbonyl](3-methylbutyl)amino]-2-hydroxy-1-(phenylmethyl)propyl]-2-[(N-benzyloxycarbonyl)amino], [1S-[1R*(R*),2S*]]-], the half-inhibitory concentration (IC50) on HIV protease (setting [3]) turned out to be 13.4 nM.

Turning to `CC(C)CCN(CC(O)C(Cc1ccccc1)NC(=O)C(CC(N)=O)NC(=O)c1ccc2ccccc2n1)C(=O)NC(C)(C)C` (stereo not drawn) [Compound 2b, Butanediamide, N^1-[3-[[[(1,1-dimethylethyl)amino]carbonyl](3-methylbutyl)amino]-2-hydroxy-1-(phenylmethyl)propyl]-2-[(2-quinolinylcarbonyl)amino]-, [1S-[1R*(R*),2S*]]-], it took 3.2 nM to reach half-maximal inhibition against HIV protease (setting [1]) (IC50).

In the case of `CC(C)(C)NC(=O)N(Cc1ccc2ccccc2c1)C[C@@H](O)[C@H](Cc1ccccc1)NC(=O)[C@H](CC(N)=O)NC(=O)OCc1ccccc1` [Compound 3a, Butanediamide, N^1-[3-[[[(1,1-dimethylethyl)amino]carbonyl](2-naphthylmethyl)amino]-2-hydroxy-1-(phenylmethyl)propyl]-2-[(N-benzyloxycarbonyl)amino]-, [1S-[1R*(R*), 2S*]]-], the IC50 at HIV protease (setting [3]) turned out to be 31 nM.

For the molecule `CC(C)(C)NC(=O)N(Cc1ccc2ccccc2c1)CC(O)C(Cc1ccccc1)NC(=O)C(CC(N)=O)NC(=O)c1ccc2ccccc2n1` (stereo not drawn) [Compound 3b, Butanediamide, N^1-[3-[[[(1,1-dimethylethyl)amino]carbonyl](2-naphthylmethyl)amino]-2-hydroxy-1-(phenylmethyl)propyl]-2-[(2-quinolinylcarbonyl)amino]-, [1S-[1R*(R*),2S*]]-], the IC50 on HIV protease (setting [3]) turned out to be 2.9 nM.

`CC(C)(C)NC(=O)N(CCc1ccccc1)CC(O)C(Cc1ccccc1)NC(=O)C(CC(N)=O)NC(=O)OCc1ccccc1` (stereo not drawn) [Compound 4a, Butanediamide, N^1-[3-[[[(1,1-dimethylethyl)amino]carbonyl](2-phenylethyl)amino]-2-hydroxy-1-(phenylmethyl)propyl]-2-[(N-benzyloxycarbonyl)amino]-, [1S-[1R*(R*),2S*]]-]: the IC50 at HIV protease (setting [3]) is 70 nM.

Regarding `CC(C)(C)NC(=O)N(CCc1ccccc1)CC(O)C(Cc1ccccc1)NC(=O)C(CC(N)=O)NC(=O)c1ccc2ccccc2n1` (stereo not drawn) [Compound 4b, Butanediamide, N^1-[3-[[[(1,1-dimethylethyl)amino]carbonyl](2-phenylethyl)amino]-2-hydroxy-1-(phenylmethyl)propyl]-2-[(2-quinolinylcarbonyl)amino]-, [1S-[1R*(R*),2S*]]-], the half-inhibitory concentration (IC50) at HIV protease (setting [1]) and against HIV protease (setting [2]) was 10 nM in each case. The same molecule yielded a TD50 in the data set with CEM cells of 13 µM. The molecule also yielded a 50% effective concentration (EC50) with HIV-1 of 28 nM.

As for `CC(C)CCN(CC(O)C(Cc1ccccc1)NC(=O)C(CC(N)=O)NC(=O)c1ccc2ccccc2n1)C(=O)NC(C)(C)C` (stereo not drawn) [Compound 5b, Butanediamide, N^1-[3-[[[(1,1-dimethylethyl)amino]carbonyl](3,3-dimethylpropyl)amino]-2-hydroxy-1-(phenylmethyl)propyl]-2-[(2-quinolinylcarbonyl)amino]-, [1S-[1R*(R*),2S*]]-], at HIV protease (setting [3]), the IC50 is 3.7 nM.

On to `CC(C)CCN(CC(O)C(Cc1ccccc1)NC(=O)C(C)CS(C)(=O)=O)C(=O)NC(C)(C)C` (stereo not drawn) [Compound 6, Propanamide, N-[3-[[[(1,1-dimethylethyl)amino]carbonyl](3-methylbutyl)amino]-2-hydroxy-1-(phenylmethyl)propyl]-2-methyl-3-(methylsulfonyl)-, [1S-[1R*(R*), 2S*]]-], for which the IC50 at HIV protease (setting [3]) turned out to be 29 nM.

Consider `CC(=O)NCC(C)C(=O)NC(Cc1ccccc1)C(O)CN(CCC(C)C)C(=O)NC(C)(C)C` (stereo not drawn) [Compound 7, Propanamide, 3-(acetylamino)-N-[3-[[[(11,-dimethylethyl)amino]carbonyl](3-methylbutyl)amino]-2-hydroxy-1-(phenylmethyl)propyl]-2-methyl-, [1S-[1R*(S*),2S*]]-], for which the IC50 at HIV protease (setting [3]) was found to be 100 nM.

On HIV protease (setting [1]), `COc1ccc(COC(=O)NC[C@@H](C)C(=O)N[C@@H](Cc2ccccc2)[C@H](O)CN(CCC(C)C)C(=O)NC(C)(C)C)cc1` [Compound 8, Propanamide, 3-(4-methoxybenzyloxy-carbonyl)amino-N-[3-[[[(11,-dimethylethyl)amino]carbonyl](3-methylbutyl)amino]-2-hydroxy-1-(phenylmethyl)propyl]-2-methyl-, [1S-[1R*(S*),2S*]]-] gave an IC50 of 6 nM.

Regarding `NC(=O)CC(NC(=O)c1ccc2ccccc2n1)C(=O)NC(Cc1ccccc1)C(O)CN(Cc1ccc(F)cc1)C(=O)N1CCCC1` (stereo not drawn) [Compound 9, Butanediamide, N^1-[2-hydroxy-3-[(4-fluorophenylmethyl)(1-pyrrolidinylcarbonyl)amino]-1-(phenylmethyl)propyl]-2-[(2-quinolinylcarbonyl)amino]-, [1S-[1R*(R*),2S*]]-], the IC50 on HIV protease (setting [3]) worked out at 7 nM.

Take `CC(C)CCN(C[C@@H](O)[C@H](Cc1ccccc1)NC(=O)[C@H](C)C(C)(C)C(N)=O)C(=O)NC(C)(C)C` [Compound 10, Butanediamide, N^1-[3-[[[(1,1-dimethylethyl)amino]carbonyl](3-methylbutyl)amino]-2-hydroxy-1-(phenylmethyl)propyl]-2,3,3-trimethyl-, [1S-[1R*(2S*),2S*]]-]: the IC50 at HIV protease (setting [3]) was determined as 12 nM.

Molecule `CC(C)CCN(C[C@@H](O)[C@H](Cc1ccccc1)NC(=O)[C@H](C)C(C)(C)C(=O)O)C(=O)NC(C)(C)C` [Compound 11, Butanoic acid, 4-[[3-[[[(1,1-dimethylethyl)amino]carbonyl] (3-methylbutyl)amino]-2-hydroxy-1-(phenylmethyl)propyl]amino-2,2,3-trimethyl-4-oxo-, [1S-[1R*(3S*), 2S*]]-] displayed a half-maximal inhibitory concentration (IC50) against HIV protease (setting [1]) of 8 nM.

For the molecule `CC(=O)N[C@H](C(=O)N[C@@H](Cc1ccccc1)[C@H](O)CN(CCC(C)C)C(=O)NC(C)(C)C)C(C)(C)C` [Compound 12, Butaneamide,2-(acetylamino)-N-[3-[[[(1,1-dimethylethyl)amino]-carbonyl](3-methylbutyl)amino]-2-hydroxy-1-(phenylmethyl)propyl]-3,3-dimethyl-, [1S-[1R*(R*),2S*]]-], the 50% inhibitory concentration (IC50) on HIV protease (setting [3]) was found to be 18 nM.

`CCCCNC(=O)N(CC(C)C)C[C@@H](O)[C@H](Cc1ccccc1)NC(=O)[C@H](CC(N)=O)NC(=O)c1ccc2ccccc2n1` [butanediamide N^1[3-[[[n-butylamino]carbonyl](2-methylpropyl)amino]-2-hydroxy-1-(phenylmethyl)propyl]-2-[(2-quinolinylcarbonyl)amino]-[1S-[1R*(R*), 2S*]]-.] yielded a TD50 in the data set with CEM cells of 53 µM. The 50% effective concentration (EC50) with HIV-1 amounted to 26 nM.

As usually defined, the EC50 is the concentration at which the effect is half-maximal. Low readings indicate higher potency in that assay, high ones lower potency in that assay. In general, IC50 refers to the concentration that gives 50% inhibition.
